According to PubChem BioAssay (NCI):
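How tested: cells in 96-well plates exposed to compound for 48 hours at five concentrations. Definition used: TGI = concentration required for complete inhibition of growth.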

Tests used:
Test in all cases: NCI-60 cell line screen, 48 h
NCI-H460 lung = system: NCI-H460 lung
HCC-2998 colon = system: HCC-2998 colon
SK-MEL-28 melanoma = system: SK-MEL-28 melanoma
HS 578T breast = system: HS 578T breast
LOX IMVI melanoma = system: LOX IMVI melanoma
IGROV1 ovarian = system: IGROV1 ovarian
SK-MEL-5 melanoma = system: SK-MEL-5 melanoma
M14 melanoma = system: M14 melanoma
T-47D breast = system: T-47D breast
HCT-15 colon = system: HCT-15 colon
MDA-MB-231 breast = system: MDA-MB-231 breast
SF-539 CNS = system: SF-539 CNS
MALME-3M melanoma = system: MALME-3M melanoma
ACHN renal = system: ACHN renal
A549 NSCLC = system: A549 NSCLC
HOP-62 NSCLC = system: HOP-62 NSCLC
SN12C renal = system: SN12C renal
SF-268 CNS = system: SF-268 CNS
COLO 205 colon = system: COLO 205 colon
OVCAR-5 ovarian = system: OVCAR-5 ovarian
OVCAR-8 ovarian = system: OVCAR-8 ovarian
DU-145 prostate = system: DU-145 prostate
UACC-257 melanoma = system: UACC-257 melanoma
OVCAR-4 ovarian = system: OVCAR-4 ovarian
TK-10 renal = system: TK-10 renal
SR leukemia = system: SR leukemia
HOP-92 NSCLC = system: HOP-92 NSCLC
SK-MEL-2 melanoma = system: SK-MEL-2 melanoma
MCF7 breast = system: MCF7 breast
SF-295 CNS = system: SF-295 CNS
SW-620 colon = system: SW-620 colon
NCI-H23 lung = system: NCI-H23 lung
RPMI-8226 leukemia = system: RPMI-8226 leukemia
SK-OV-3 ovarian = system: SK-OV-3 ovarian
U251 CNS = system: U251 CNS
CCRF-CEM leukemia = system: CCRF-CEM leukemia
EKVX NSCLC = system: EKVX NSCLC
NCI-H522 lung = system: NCI-H522 lung
UACC-62 melanoma = system: UACC-62 melanoma
NCI-H226 lung = system: NCI-H226 lung
MOLT-4 leukemia = system: MOLT-4 leukemia
MDA-MB-435 = system: MDA-MB-435
HCT-116 colon = system: HCT-116 colon
PC-3 prostate = system: PC-3 prostate
HT29 colon = system: HT29 colon
KM12 colon = system: KM12 colon
OVCAR-3 ovarian = system: OVCAR-3 ovarian
UO-31 renal = system: UO-31 renal
RXF 393 renal = system: RXF 393 renal
K-562 leukemia = system: K-562 leukemia
786-0 renal = system: 786-0 renal
SNB-19 CNS = system: SNB-19 CNS
MDA-N = system: MDA-N
NCI/ADR-RES ovarian = system: NCI/ADR-RES ovarian
SNB-75 CNS = system: SNB-75 CNS
CAKI-1 renal = system: CAKI-1 renal
A498 renal = system: A498 renal
HL-60(TB) leukemia = system: HL-60(TB) leukemia

C=CC1(c2ccc(-c3ccccc3)cc2)OCCO1
TGI (NCI-H460 lung): > 100 µM | TGI (HCC-2998 colon): > 100 µM | TGI (SK-MEL-28 melanoma): > 100 µM | TGI (HS 578T breast): 69 µM | TGI (LOX IMVI melanoma): > 100 µM | TGI (IGROV1 ovarian): > 100 µM | TGI (SK-MEL-5 melanoma): > 100 µM | TGI (M14 melanoma): > 100 µM | TGI (T-47D breast): > 100 µM | TGI (HCT-15 colon): > 100 µM | TGI (MDA-MB-231 breast): > 100 µM | TGI (SF-539 CNS): > 100 µM | TGI (MALME-3M melanoma): > 100 µM | TGI (ACHN renal): > 100 µM | TGI (A549 NSCLC): > 100 µM | TGI (HOP-62 NSCLC): > 100 µM | TGI (SN12C renal): > 100 µM | TGI (SF-268 CNS): > 100 µM | TGI (COLO 205 colon): > 100 µM | TGI (OVCAR-5 ovarian): > 100 µM | TGI (OVCAR-8 ovarian): > 100 µM | TGI (DU-145 prostate): > 100 µM | TGI (UACC-257 melanoma): > 100 µM | TGI (OVCAR-4 ovarian): > 100 µM | TGI (TK-10 renal): > 100 µM | TGI (SR leukemia): 84.6 µM | TGI (HOP-92 NSCLC): 87.1 µM | TGI (SK-MEL-2 melanoma): 53.7 µM | TGI (MCF7 breast): > 100 µM | TGI (SF-295 CNS): > 100 µM | TGI (SW-620 colon): > 100 µM | TGI (NCI-H23 lung): 89.8 µM | TGI (RPMI-8226 leukemia): > 100 µM | TGI (SK-OV-3 ovarian): > 100 µM | TGI (U251 CNS): > 100 µM | TGI (CCRF-CEM leukemia): 86.4 µM | TGI (EKVX NSCLC): > 100 µM | TGI (NCI-H522 lung): > 100 µM | TGI (UACC-62 melanoma): 89.1 µM | TGI (NCI-H226 lung): 64.1 µM | TGI (MOLT-4 leukemia): > 100 µM | TGI (MDA-MB-435): > 100 µM | TGI (HCT-116 colon): > 100 µM | TGI (PC-3 prostate): > 100 µM | TGI (HT29 colon): 81.2 µM | TGI (KM12 colon): > 100 µM | TGI (OVCAR-3 ovarian): > 100 µM | TGI (UO-31 renal): > 100 µM | TGI (RXF 393 renal): 88.6 µM | TGI (K-562 leukemia): 61.9 µM | TGI (786-0 renal): > 100 µM | TGI (SNB-19 CNS): > 100 µM | TGI (MDA-N): > 100 µM | TGI (NCI/ADR-RES ovarian): > 100 µM | TGI (SNB-75 CNS): > 100 µM

OC1CCCCCCCCCCC1SCCCCl (stereo unspecified)
TGI (NCI-H460 lung): > 100 µM | TGI (HCC-2998 colon): > 100 µM | TGI (CAKI-1 renal): > 100 µM | TGI (SK-MEL-28 melanoma): > 100 µM | TGI (HS 578T breast): > 100 µM | TGI (LOX IMVI melanoma): > 100 µM | TGI (IGROV1 ovarian): > 100 µM | TGI (SK-MEL-5 melanoma): > 100 µM | TGI (M14 melanoma): > 100 µM | TGI (T-47D breast): > 100 µM | TGI (HCT-15 colon): > 100 µM | TGI (MDA-MB-231 breast): > 100 µM | TGI (SF-539 CNS): > 100 µM | TGI (MALME-3M melanoma): > 100 µM | TGI (ACHN renal): > 100 µM | TGI (A549 NSCLC): > 100 µM | TGI (A498 renal): > 100 µM | TGI (HOP-62 NSCLC): > 100 µM | TGI (SN12C renal): > 100 µM | TGI (SF-268 CNS): > 100 µM | TGI (COLO 205 colon): > 100 µM | TGI (OVCAR-5 ovarian): > 100 µM | TGI (OVCAR-8 ovarian): > 100 µM | TGI (DU-145 prostate): > 100 µM | TGI (UACC-257 melanoma): > 100 µM | TGI (OVCAR-4 ovarian): > 100 µM | TGI (TK-10 renal): > 100 µM | TGI (SR leukemia): > 100 µM | TGI (HOP-92 NSCLC): > 100 µM | TGI (SK-MEL-2 melanoma): > 100 µM | TGI (MCF7 breast): > 100 µM | TGI (SF-295 CNS): > 100 µM | TGI (SW-620 colon): > 100 µM | TGI (NCI-H23 lung): > 100 µM | TGI (RPMI-8226 leukemia): > 100 µM | TGI (SK-OV-3 ovarian): > 100 µM | TGI (U251 CNS): > 100 µM | TGI (EKVX NSCLC): > 100 µM | TGI (NCI-H522 lung): > 100 µM | TGI (UACC-62 melanoma): > 100 µM | TGI (NCI-H226 lung): > 100 µM | TGI (MOLT-4 leukemia): > 100 µM | TGI (MDA-MB-435): > 100 µM | TGI (HCT-116 colon): > 100 µM | TGI (PC-3 prostate): > 100 µM | TGI (HT29 colon): > 100 µM | TGI (KM12 colon): > 100 µM | TGI (OVCAR-3 ovarian): > 100 µM | TGI (HL-60(TB) leukemia): > 100 µM | TGI (UO-31 renal): > 100 µM | TGI (RXF 393 renal): > 100 µM | TGI (K-562 leukemia): > 100 µM | TGI (786-0 renal): > 100 µM | TGI (SNB-19 CNS): > 100 µM | TGI (MDA-N): > 100 µM | TGI (NCI/ADR-RES ovarian): > 100 µM

C=CCNC(=S)/N=C\C(C(=O)OCC)=C(/O)C(=O)OCC
TGI (NCI-H460 lung): > 100 µM | TGI (HCC-2998 colon): > 100 µM | TGI (CAKI-1 renal): > 100 µM | TGI (SK-MEL-28 melanoma): > 100 µM | TGI (HS 578T breast): > 100 µM | TGI (LOX IMVI melanoma): > 100 µM | TGI (IGROV1 ovarian): > 100 µM | TGI (SK-MEL-5 melanoma): > 100 µM | TGI (M14 melanoma): > 100 µM | TGI (T-47D breast): > 100 µM | TGI (HCT-15 colon): > 100 µM | TGI (MDA-MB-231 breast): > 100 µM | TGI (SF-539 CNS): > 100 µM | TGI (MALME-3M melanoma): > 100 µM | TGI (ACHN renal): > 100 µM | TGI (A549 NSCLC): > 100 µM | TGI (HOP-62 NSCLC): > 100 µM | TGI (SN12C renal): > 100 µM | TGI (SF-268 CNS): > 100 µM | TGI (COLO 205 colon): > 100 µM | TGI (OVCAR-5 ovarian): > 100 µM | TGI (OVCAR-8 ovarian): > 100 µM | TGI (DU-145 prostate): > 100 µM | TGI (UACC-257 melanoma): > 100 µM | TGI (OVCAR-4 ovarian): > 100 µM | TGI (SR leukemia): > 100 µM | TGI (SK-MEL-2 melanoma): > 100 µM | TGI (MCF7 breast): > 100 µM | TGI (SF-295 CNS): > 100 µM | TGI (SW-620 colon): > 100 µM | TGI (NCI-H23 lung): > 100 µM | TGI (RPMI-8226 leukemia): > 100 µM | TGI (SK-OV-3 ovarian): > 100 µM | TGI (U251 CNS): > 100 µM | TGI (CCRF-CEM leukemia): > 100 µM | TGI (EKVX NSCLC): > 100 µM | TGI (NCI-H522 lung): > 100 µM | TGI (UACC-62 melanoma): > 100 µM | TGI (NCI-H226 lung): > 100 µM | TGI (MOLT-4 leukemia): > 100 µM | TGI (MDA-MB-435): > 100 µM | TGI (HCT-116 colon): > 100 µM | TGI (PC-3 prostate): > 100 µM | TGI (HT29 colon): > 100 µM | TGI (KM12 colon): > 100 µM | TGI (OVCAR-3 ovarian): > 100 µM | TGI (HL-60(TB) leukemia): > 100 µM | TGI (UO-31 renal): > 100 µM | TGI (RXF 393 renal): > 100 µM | TGI (K-562 leukemia): > 100 µM | TGI (786-0 renal): > 100 µM | TGI (SNB-19 CNS): > 100 µM | TGI (MDA-N): > 100 µM | TGI (NCI/ADR-RES ovarian): > 100 µM | TGI (SNB-75 CNS): > 100 µM
